Earlier results, collected in patent publication US9532983B2, “Benzofuran compounds, compositions, kits and/or methods thereof” (Savannah State University, priority 2013, dated 2017).
pKi: −log10 of the molar value.

Molecular target: σ1 receptor (Homo sapiens, UniProt Q99720)
Settings: read-out: affinity for the σ1 receptor; Maurice et al.; cited from earlier work

Sequence of σ1 receptor (Q99720 whole entry, species assumed): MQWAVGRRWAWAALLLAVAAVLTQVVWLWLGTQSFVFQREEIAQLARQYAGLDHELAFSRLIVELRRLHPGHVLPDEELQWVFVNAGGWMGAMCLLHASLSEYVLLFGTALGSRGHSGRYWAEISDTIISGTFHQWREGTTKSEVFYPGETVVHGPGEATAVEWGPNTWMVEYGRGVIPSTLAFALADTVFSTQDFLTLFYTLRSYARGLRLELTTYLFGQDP

Cc1ccc2c(c1)[C@]13CCCC[C@@H]1[C@H](C2)N(C)CC3 [dimemorfan]
pKi: 6.82
